According to publication PMC8920304, “Potent Inhibition of Human Cytochrome P450 3A4 by Biflavone Components from Ginkgo Biloba and Selaginella Tamariscina” (Frontiers in Pharmacology, 2022):

What was measured:
[1] = biological target: T1, CYP3A4 (Homo sapiens, UniProt P08684); assay: Inhibition of NEN 4-hydroxylation in human liver microsomes (fluorescence high-throughput screening); assay type: in vitro ADME; conditions: HLM, NEN probe, mean ± S.D. (n = 3); read-out: IC50 against CYP3A4 (NEN 4-hydroxylation)
T1 construct: The primary incubation mixture contains HLM, potassium phosphate buffer; from tissue; host or cells: human liver microsomes (HLM)
T1 sequence (P08684 whole entry): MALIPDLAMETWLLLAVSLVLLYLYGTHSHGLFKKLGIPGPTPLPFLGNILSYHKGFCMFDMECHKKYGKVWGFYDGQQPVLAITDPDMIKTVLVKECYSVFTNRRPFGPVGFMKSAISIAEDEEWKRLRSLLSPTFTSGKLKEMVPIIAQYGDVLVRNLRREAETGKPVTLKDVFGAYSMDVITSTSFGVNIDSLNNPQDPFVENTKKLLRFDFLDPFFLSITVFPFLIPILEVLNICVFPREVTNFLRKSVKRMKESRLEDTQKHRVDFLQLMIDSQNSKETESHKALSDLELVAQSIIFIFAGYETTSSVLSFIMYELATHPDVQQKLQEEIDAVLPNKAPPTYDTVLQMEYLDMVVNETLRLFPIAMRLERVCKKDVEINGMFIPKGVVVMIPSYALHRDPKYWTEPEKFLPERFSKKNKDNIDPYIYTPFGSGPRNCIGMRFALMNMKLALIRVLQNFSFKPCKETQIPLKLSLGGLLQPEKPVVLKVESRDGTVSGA
Method: The primary incubation mixture contains HLM, potassium phosphate buffer (pH 7.4, 100 mM), G-6-P (10 mM), G-6-P dehydrogenase (1 U/ml), MgCl2 (4 mM), NEN (50 µM), extracts of herbal medicine (20 µg/ml), or components. The incubation duration and HLM protein concentrations were 30 min and 0.05 mg/ml, respectively. The reaction was initiated by the addition of NADP^+ and terminated by the addition of 100 µL ice-cold acetonitrile (ACN). NEN 4-hydroxylation were utilized as the probe reaction for CYP3A4, and fluorescence image of 96-well microplates were measured by a fluorescent image analyzer (GE Amersham Typhoon, Sweden) under the excitation wavelength of 488 nm (E m: 570 ± 15 nm). The formation of NEHN was evaluated by the quantitative analysis of fluorescence signal for individual wells of microplates using the equipment supporting software. The percentage residual activity was calculated from percentage relative value of NEHN formation rate.

[2] = biological target: T1, CYP3A4; assay: Inhibition kinetic characterization with NEN 4-hydroxylation in HLM; assay type: in vitro ADME; conditions: for Type of inhibition: NEN 4-hydroxylation; for Ki: NEN 15-150 µM, 30 min; for ɑ (degree to which inhibitor binding influences enzyme-substrate binding): mixed-inhibition model
Method: Varying concentrations of DGK, GK, IGK, and AMF incubated for 30 min with varying concentrations of NEN (15–150 µM). The high-throughput screening assay was performed, and the inhibition curve was fitted with GraphPad Prism (Version 8.0). The inhibition type was confirmed based on the R square of the following four equations and the Dixon and Lineweaver–Burk plots. The inhibition constant (K i) values were determined using the equations for competitive inhibition (Eq. 1), noncompetitive inhibition (Eq. 2), uncompetitive inhibition (Eq. 3), and mixed inhibition (Eq. 4). v=VmaxS/Km(1+I/Ki)+S (1) v=VmaxS/(Km+S)(1+I/Ki) (2) v=VmaxS/S(1+I/Ki)+Km (3) v=VmaxS/Km(1+I/Ki)+S(1+I/αKi) (4)

[3] = biological target: T1, CYP3A4; assay: Inhibition of CYP3A4-mediated oxidation of clinical drugs (tamoxifen, gefitinib, ticagrelor) in HLM, LC-MS/MS; assay type: in vitro ADME; conditions: 30 min, ± SD
Method: Varying concentrations of DGK, GK, IGK, and AMF incubated for 30 min with gefitinib (10 μM), tamoxifen (20 μM), ticagrelor (30 μM), respectively ([Wang et al., 2020]). The ExionLC AD HPLC system consisted of an autosampler, a quaternary delivery system and a degasser. The chromatograph was equipped with a Luna Omega PS C18 (2.1 × 100 mm, 3 μm) analytical column, and the mobile phase consisted of 0.1% formic acid aqueous solution (A) and ACN (B), and were conducted with a 0.30 ml/min flow rate as follow for the gradient program: 0–1.5 min (10–10% B), 1.5–3.0 min (10–45% B), 3.0–5.0 min (45–90% B). An AB MDS Sciex QTRAP 5500 Mass Spectrometer equipped with an ESI source was used to analyze the target substances. The positive mode was used with N-demethylated tamoxifen (358.0→58.0) and defluorinated gefitinib (445.0→128.0). The relative parameters were set as follows: ion spray voltage, 5500 V; temperature, 550°C; curtain gas (CUR) flow, […]; gas1 and gas2 (nitrogen), 45 and 55 psi. The negative mode was used with dehydroxyethoxylated ticagrelor (477.2→361.1). The relative parameters were set as follows: ion spray voltage, -4500 V; temperature, 550°C; curtain gas flow, […]; gas1 and gas2, 50 and 50 psi. For other parameters, please refer to Supplementary Table S1 in the supplementary data.

[4] = biological target: T1, CYP3A4; design: method as in Ning et al., 2019; conditions: HLM; ref Ning et al., 2019; cited from earlier work
[5] = gefitinib 10 μM, defluorination, read-out: IC50 toward gefitinib
[6] = tamoxifen 20 μM, N-demethylation, read-out: IC50 toward tamoxifen
[7] = ticagrelor 30 μM, dehydroxyethoxylation, read-out: IC50 toward ticagrelor

Structure (SMILES)	IC50 [1] [nM]	Type of inhibition [2]	Ki [2] [nM]	ɑ (degree to which inhibitor binding influences enzyme-substrate binding) [2]	IC50 [3, 5] [nM]	IC50 [3, 6] [nM]	IC50 [3, 7] [nM]	Inhibition of C4-hydroxylation of NEN in human liver microsomes (in words) [4]
O=c1cc(-c2ccc(O)c(-c3c(O)cc(O)c4c(=O)cc(-c5ccc(O)cc5)oc34)c2)oc2cc(O)cc(O)c12 [AMF, Amentoflavone]	186 ± 4	mixed reversible inhibition	101 ± 30	5.55	5200 ± 527	2720 ± 93	2920 ± 47	–
Cc1ccc(-c2c(-c3nn(C)c4ncnc(N5CC[C@H](N6CCCCC6)C5)c34)cnn2C)cc1 [CYP3cide]	–	–	–	–	–	–	–	strongly inhibited
COc1ccc(-c2cc(=O)c3c(O)cc(O)c(-c4cc(-c5cc(=O)c6c(O)cc(O)cc6o5)ccc4OC)c3o2)cc1 [IGK, isoginkgetin]	982 ± 6	mixed reversible inhibition	278 ± 87	2.79	13100 ± 415	4660 ± 236	10200 ± 382	–

Further compounds by falling IC50 [1], results first:

IC50 [1] [nM]	Type of inhibition [2]	Ki [2] [nM]	ɑ (degree to which inhibitor binding influences enzyme-substrate binding) [2]	IC50 [3, 5] [nM]	IC50 [3, 6] [nM]	IC50 [3, 7] [nM]	Structure (SMILES)	Inhibition of C4-hydroxylation of NEN in human liver microsomes (in words) [4]
162 ± 22	mixed reversible inhibition	70 ± 18	2.98	1720 ± 1	1020 ± 88	3500 ± 34	COc1ccc(-c2cc(=O)c3c(O)cc(O)cc3o2)cc1-c1c(O)cc(O)c2c(=O)cc(-c3ccc(O)cc3)oc12 [DGK, bilobetin]	–
106 ± 4	mixed reversible inhibition	34 ± 7	4.56	869 ± 1	478 ± 3	1610 ± 39	COc1cc(O)c2c(=O)cc(-c3ccc(OC)c(-c4c(O)cc(O)c5c(=O)cc(-c6ccc(O)cc6)oc45)c3)oc2c1 [GK, ginkgetin]	–
